Source: article PMC9728158, “Two Flavonoid-Based Compounds from Murraya paniculata as Novel Human Carbonic Anhydrase Isozyme II Inhibitors Detected by a Resazurin Yeast-Based Assay” (Journal of Microbiology and Biotechnology, 2019)

Target: T1, human carbonic anhydrase isozyme II (hCAII) (Homo sapiens, UniProt P00918)
T1 construct: gene CA2
Experiment: in vitro esterase assay (4-NPA hydrolysis, […] nm); also yeast-based hCAII assay
Type: biochemical

Row | Structure (SMILES) | IC50 [µM]
1 | COc1cc(-c2oc3c(OC)c(OC)cc(OC)c3c(=O)c2OC)cc(OC)c1OC [compound 9, 3,5,7,8,3′,4′,5′-Heptamethoxyflavone] | 34.3
2 | COc1cc(-c2cc(=O)c3c(OC)c(OC)c(OC)c(OC)c3o2)cc(OC)c1OC [compound 4, 5,6,7,8,3′,4′,5′-heptamethoxyflavone] | 24
